Assay results taken from PubChem BioAssay AID2060627 (Molecular Pharmacology Branch, DTP, NCI, 2025).

Test system: 156681-154-R-J1-PDC complex spheroid viability
Assay: Anticancer human tumor 156681-154-R-J1-PDC patient-derived melanoma cell line growth inhibition [CLK]
Settings: second compound 0.316 µM; first compound 1 µM; active compounds read low
Outline: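 Multi-cell-type spheroids combined patient-derived tumor cells with HUVEC endothelial cells and human mesenchymal stem cells. Paired agents were dosed in half-log steps down from about clinical Cmax, or from 10 microM where Cmax was unknown.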
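Further: spheroids exposed to the agents for seven days; 100% = DMSO vehicle control viability.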

| Compound | viability, T/C [%] |
| --- | --- |
| COC1C=CCC(C)C(C)S(=O)(=O)NC(=O)c2ccc3c(c2)N(CC2CCC21)CC1(CCCc2cc(Cl)ccc21)CO3 (configuration not stated) + CNC(=O)c1ccc(Nc2nc(OC3CCCC3)c3c(-c4ccc5nc(C)oc5c4)c[nH]c3n2)c(OC)c1 | 20.6 |
| Nc1ccccc1NC(=O)c1ccc(CNC(=O)OCc2cccnc2)cc1 + CN1CCN(c2cc(C(=O)Nc3cc4cc(-c5cnn(C)c5)ccc4cn3)ccn2)CC1 | 14.6 |
| O=c1[nH]cc(F)c(=O)[nH]1 + CNC(=O)c1ccc(Nc2nc(OC3CCCC3)c3c(-c4ccc5nc(C)oc5c4)c[nH]c3n2)c(OC)c1 | 60.7 |
| C=CC(=O)N1CCN(c2nc(=O)n(-c3c(C)ccnc3C(C)C)c3nc(-c4c(O)cccc4F)c(F)cc23)C(C)C1 (configuration not stated) + CNC(=O)c1ccc(Nc2nc(OC3CCCC3)c3c(-c4ccc5nc(C)oc5c4)c[nH]c3n2)c(OC)c1 | 71.2 |
| Nc1ccccc1NC(=O)c1ccc(CNC(=O)OCc2cccnc2)cc1 + CNC(=O)c1ccc(Nc2nc(OC3CCCC3)c3c(-c4ccc5nc(C)oc5c4)c[nH]c3n2)c(OC)c1 | 34.6 |

Same assay, conditions: second compound 0.316 µM; first compound 3.16 µM; active compounds read low

| Compound | viability, T/C [%] |
| --- | --- |
| COC1C=CCC(C)C(C)S(=O)(=O)NC(=O)c2ccc3c(c2)N(CC2CCC21)CC1(CCCc2cc(Cl)ccc21)CO3 (configuration not stated) + CNC(=O)c1ccc(Nc2nc(OC3CCCC3)c3c(-c4ccc5nc(C)oc5c4)c[nH]c3n2)c(OC)c1 | 5.31 |
| Nc1ccccc1NC(=O)c1ccc(CNC(=O)OCc2cccnc2)cc1 + CN1CCN(c2cc(C(=O)Nc3cc4cc(-c5cnn(C)c5)ccc4cn3)ccn2)CC1 | 1.03 |
| O=c1[nH]cc(F)c(=O)[nH]1 + CNC(=O)c1ccc(Nc2nc(OC3CCCC3)c3c(-c4ccc5nc(C)oc5c4)c[nH]c3n2)c(OC)c1 | 53.8 |
| C=CC(=O)N1CCN(c2nc(=O)n(-c3c(C)ccnc3C(C)C)c3nc(-c4c(O)cccc4F)c(F)cc23)C(C)C1 (configuration not stated) + CNC(=O)c1ccc(Nc2nc(OC3CCCC3)c3c(-c4ccc5nc(C)oc5c4)c[nH]c3n2)c(OC)c1 | 65.6 |
| Nc1ccccc1NC(=O)c1ccc(CNC(=O)OCc2cccnc2)cc1 + CNC(=O)c1ccc(Nc2nc(OC3CCCC3)c3c(-c4ccc5nc(C)oc5c4)c[nH]c3n2)c(OC)c1 | 4.74 |

Same assay, conditions: second compound 0.316 µM; first compound 10 µM; active compounds read low

| Compound | viability, T/C [%] |
| --- | --- |
| COC1C=CCC(C)C(C)S(=O)(=O)NC(=O)c2ccc3c(c2)N(CC2CCC21)CC1(CCCc2cc(Cl)ccc21)CO3 (configuration not stated) + CNC(=O)c1ccc(Nc2nc(OC3CCCC3)c3c(-c4ccc5nc(C)oc5c4)c[nH]c3n2)c(OC)c1 | 2.16 |
| Nc1ccccc1NC(=O)c1ccc(CNC(=O)OCc2cccnc2)cc1 + CN1CCN(c2cc(C(=O)Nc3cc4cc(-c5cnn(C)c5)ccc4cn3)ccn2)CC1 | 0.71 |
| O=c1[nH]cc(F)c(=O)[nH]1 + CNC(=O)c1ccc(Nc2nc(OC3CCCC3)c3c(-c4ccc5nc(C)oc5c4)c[nH]c3n2)c(OC)c1 | 30.6 |
| C=CC(=O)N1CCN(c2nc(=O)n(-c3c(C)ccnc3C(C)C)c3nc(-c4c(O)cccc4F)c(F)cc23)C(C)C1 (configuration not stated) + CNC(=O)c1ccc(Nc2nc(OC3CCCC3)c3c(-c4ccc5nc(C)oc5c4)c[nH]c3n2)c(OC)c1 | 27.2 |
| Nc1ccccc1NC(=O)c1ccc(CNC(=O)OCc2cccnc2)cc1 + CNC(=O)c1ccc(Nc2nc(OC3CCCC3)c3c(-c4ccc5nc(C)oc5c4)c[nH]c3n2)c(OC)c1 | 8.02 |

Same assay, conditions: second compound 1 µM; first compound 0.0316 µM; active compounds read low

| Compound | viability, T/C [%] |
| --- | --- |
| COC1C=CCC(C)C(C)S(=O)(=O)NC(=O)c2ccc3c(c2)N(CC2CCC21)CC1(CCCc2cc(Cl)ccc21)CO3 (configuration not stated) + CNC(=O)c1ccc(Nc2nc(OC3CCCC3)c3c(-c4ccc5nc(C)oc5c4)c[nH]c3n2)c(OC)c1 | 43.4 |
| Nc1ccccc1NC(=O)c1ccc(CNC(=O)OCc2cccnc2)cc1 + CN1CCN(c2cc(C(=O)Nc3cc4cc(-c5cnn(C)c5)ccc4cn3)ccn2)CC1 | 0.22 |
| O=c1[nH]cc(F)c(=O)[nH]1 + CNC(=O)c1ccc(Nc2nc(OC3CCCC3)c3c(-c4ccc5nc(C)oc5c4)c[nH]c3n2)c(OC)c1 | 70.7 |
| C=CC(=O)N1CCN(c2nc(=O)n(-c3c(C)ccnc3C(C)C)c3nc(-c4c(O)cccc4F)c(F)cc23)C(C)C1 (configuration not stated) + CNC(=O)c1ccc(Nc2nc(OC3CCCC3)c3c(-c4ccc5nc(C)oc5c4)c[nH]c3n2)c(OC)c1 | 51.9 |
| Nc1ccccc1NC(=O)c1ccc(CNC(=O)OCc2cccnc2)cc1 + CNC(=O)c1ccc(Nc2nc(OC3CCCC3)c3c(-c4ccc5nc(C)oc5c4)c[nH]c3n2)c(OC)c1 | 64.6 |

Same assay, conditions: second compound 1 µM; first compound 0.1 µM; active compounds read low

| Compound | viability, T/C [%] |
| --- | --- |
| COC1C=CCC(C)C(C)S(=O)(=O)NC(=O)c2ccc3c(c2)N(CC2CCC21)CC1(CCCc2cc(Cl)ccc21)CO3 (configuration not stated) + CNC(=O)c1ccc(Nc2nc(OC3CCCC3)c3c(-c4ccc5nc(C)oc5c4)c[nH]c3n2)c(OC)c1 | 42.6 |
| Nc1ccccc1NC(=O)c1ccc(CNC(=O)OCc2cccnc2)cc1 + CN1CCN(c2cc(C(=O)Nc3cc4cc(-c5cnn(C)c5)ccc4cn3)ccn2)CC1 | 1.38 |
| O=c1[nH]cc(F)c(=O)[nH]1 + CNC(=O)c1ccc(Nc2nc(OC3CCCC3)c3c(-c4ccc5nc(C)oc5c4)c[nH]c3n2)c(OC)c1 | 46.3 |
| C=CC(=O)N1CCN(c2nc(=O)n(-c3c(C)ccnc3C(C)C)c3nc(-c4c(O)cccc4F)c(F)cc23)C(C)C1 (configuration not stated) + CNC(=O)c1ccc(Nc2nc(OC3CCCC3)c3c(-c4ccc5nc(C)oc5c4)c[nH]c3n2)c(OC)c1 | 51 |
| Nc1ccccc1NC(=O)c1ccc(CNC(=O)OCc2cccnc2)cc1 + CNC(=O)c1ccc(Nc2nc(OC3CCCC3)c3c(-c4ccc5nc(C)oc5c4)c[nH]c3n2)c(OC)c1 | 50.3 |

Same assay, conditions: second compound 1 µM; first compound 0.316 µM; active compounds read low

| Compound | viability, T/C [%] |
| --- | --- |
| COC1C=CCC(C)C(C)S(=O)(=O)NC(=O)c2ccc3c(c2)N(CC2CCC21)CC1(CCCc2cc(Cl)ccc21)CO3 (configuration not stated) + CNC(=O)c1ccc(Nc2nc(OC3CCCC3)c3c(-c4ccc5nc(C)oc5c4)c[nH]c3n2)c(OC)c1 | 24.4 |
| Nc1ccccc1NC(=O)c1ccc(CNC(=O)OCc2cccnc2)cc1 + CN1CCN(c2cc(C(=O)Nc3cc4cc(-c5cnn(C)c5)ccc4cn3)ccn2)CC1 | 0.48 |
| O=c1[nH]cc(F)c(=O)[nH]1 + CNC(=O)c1ccc(Nc2nc(OC3CCCC3)c3c(-c4ccc5nc(C)oc5c4)c[nH]c3n2)c(OC)c1 | 58.2 |
| C=CC(=O)N1CCN(c2nc(=O)n(-c3c(C)ccnc3C(C)C)c3nc(-c4c(O)cccc4F)c(F)cc23)C(C)C1 (configuration not stated) + CNC(=O)c1ccc(Nc2nc(OC3CCCC3)c3c(-c4ccc5nc(C)oc5c4)c[nH]c3n2)c(OC)c1 | 36.9 |
| Nc1ccccc1NC(=O)c1ccc(CNC(=O)OCc2cccnc2)cc1 + CNC(=O)c1ccc(Nc2nc(OC3CCCC3)c3c(-c4ccc5nc(C)oc5c4)c[nH]c3n2)c(OC)c1 | 41.3 |

Same assay, conditions: second compound 1 µM; first compound 1 µM; active compounds read low

| Compound | viability, T/C [%] |
| --- | --- |
| COC1C=CCC(C)C(C)S(=O)(=O)NC(=O)c2ccc3c(c2)N(CC2CCC21)CC1(CCCc2cc(Cl)ccc21)CO3 (configuration not stated) + CNC(=O)c1ccc(Nc2nc(OC3CCCC3)c3c(-c4ccc5nc(C)oc5c4)c[nH]c3n2)c(OC)c1 | 19.5 |
| Nc1ccccc1NC(=O)c1ccc(CNC(=O)OCc2cccnc2)cc1 + CN1CCN(c2cc(C(=O)Nc3cc4cc(-c5cnn(C)c5)ccc4cn3)ccn2)CC1 | 0.97 |
| O=c1[nH]cc(F)c(=O)[nH]1 + CNC(=O)c1ccc(Nc2nc(OC3CCCC3)c3c(-c4ccc5nc(C)oc5c4)c[nH]c3n2)c(OC)c1 | 52.7 |
| C=CC(=O)N1CCN(c2nc(=O)n(-c3c(C)ccnc3C(C)C)c3nc(-c4c(O)cccc4F)c(F)cc23)C(C)C1 (configuration not stated) + CNC(=O)c1ccc(Nc2nc(OC3CCCC3)c3c(-c4ccc5nc(C)oc5c4)c[nH]c3n2)c(OC)c1 | 52.3 |
| Nc1ccccc1NC(=O)c1ccc(CNC(=O)OCc2cccnc2)cc1 + CNC(=O)c1ccc(Nc2nc(OC3CCCC3)c3c(-c4ccc5nc(C)oc5c4)c[nH]c3n2)c(OC)c1 | 28.1 |

Same assay, conditions: second compound 1 µM; first compound 3.16 µM; active compounds read low

| Compound | viability, T/C [%] |
| --- | --- |
| COC1C=CCC(C)C(C)S(=O)(=O)NC(=O)c2ccc3c(c2)N(CC2CCC21)CC1(CCCc2cc(Cl)ccc21)CO3 (configuration not stated) + CNC(=O)c1ccc(Nc2nc(OC3CCCC3)c3c(-c4ccc5nc(C)oc5c4)c[nH]c3n2)c(OC)c1 | 8.99 |
| Nc1ccccc1NC(=O)c1ccc(CNC(=O)OCc2cccnc2)cc1 + CN1CCN(c2cc(C(=O)Nc3cc4cc(-c5cnn(C)c5)ccc4cn3)ccn2)CC1 | 2.99 |
| O=c1[nH]cc(F)c(=O)[nH]1 + CNC(=O)c1ccc(Nc2nc(OC3CCCC3)c3c(-c4ccc5nc(C)oc5c4)c[nH]c3n2)c(OC)c1 | 62.2 |
| C=CC(=O)N1CCN(c2nc(=O)n(-c3c(C)ccnc3C(C)C)c3nc(-c4c(O)cccc4F)c(F)cc23)C(C)C1 (configuration not stated) + CNC(=O)c1ccc(Nc2nc(OC3CCCC3)c3c(-c4ccc5nc(C)oc5c4)c[nH]c3n2)c(OC)c1 | 49 |
| Nc1ccccc1NC(=O)c1ccc(CNC(=O)OCc2cccnc2)cc1 + CNC(=O)c1ccc(Nc2nc(OC3CCCC3)c3c(-c4ccc5nc(C)oc5c4)c[nH]c3n2)c(OC)c1 | 4.08 |

Same assay, conditions: second compound 1 µM; first compound 10 µM; active compounds read low

| Compound | viability, T/C [%] |
| --- | --- |
| COC1C=CCC(C)C(C)S(=O)(=O)NC(=O)c2ccc3c(c2)N(CC2CCC21)CC1(CCCc2cc(Cl)ccc21)CO3 (configuration not stated) + CNC(=O)c1ccc(Nc2nc(OC3CCCC3)c3c(-c4ccc5nc(C)oc5c4)c[nH]c3n2)c(OC)c1 | 2.33 |
| Nc1ccccc1NC(=O)c1ccc(CNC(=O)OCc2cccnc2)cc1 + CN1CCN(c2cc(C(=O)Nc3cc4cc(-c5cnn(C)c5)ccc4cn3)ccn2)CC1 | 1.95 |
| O=c1[nH]cc(F)c(=O)[nH]1 + CNC(=O)c1ccc(Nc2nc(OC3CCCC3)c3c(-c4ccc5nc(C)oc5c4)c[nH]c3n2)c(OC)c1 | 23.6 |
| C=CC(=O)N1CCN(c2nc(=O)n(-c3c(C)ccnc3C(C)C)c3nc(-c4c(O)cccc4F)c(F)cc23)C(C)C1 (configuration not stated) + CNC(=O)c1ccc(Nc2nc(OC3CCCC3)c3c(-c4ccc5nc(C)oc5c4)c[nH]c3n2)c(OC)c1 | 14.8 |
| Nc1ccccc1NC(=O)c1ccc(CNC(=O)OCc2cccnc2)cc1 + CNC(=O)c1ccc(Nc2nc(OC3CCCC3)c3c(-c4ccc5nc(C)oc5c4)c[nH]c3n2)c(OC)c1 | 0.99 |

Same assay, conditions: second compound 3.16 µM; first compound 0.0316 µM; active compounds read low

| Compound | viability, T/C [%] |
| --- | --- |
| COC1C=CCC(C)C(C)S(=O)(=O)NC(=O)c2ccc3c(c2)N(CC2CCC21)CC1(CCCc2cc(Cl)ccc21)CO3 (configuration not stated) + CNC(=O)c1ccc(Nc2nc(OC3CCCC3)c3c(-c4ccc5nc(C)oc5c4)c[nH]c3n2)c(OC)c1 | 35.7 |
| Nc1ccccc1NC(=O)c1ccc(CNC(=O)OCc2cccnc2)cc1 + CN1CCN(c2cc(C(=O)Nc3cc4cc(-c5cnn(C)c5)ccc4cn3)ccn2)CC1 | 0.06 |
| O=c1[nH]cc(F)c(=O)[nH]1 + CNC(=O)c1ccc(Nc2nc(OC3CCCC3)c3c(-c4ccc5nc(C)oc5c4)c[nH]c3n2)c(OC)c1 | 49.7 |
| C=CC(=O)N1CCN(c2nc(=O)n(-c3c(C)ccnc3C(C)C)c3nc(-c4c(O)cccc4F)c(F)cc23)C(C)C1 (configuration not stated) + CNC(=O)c1ccc(Nc2nc(OC3CCCC3)c3c(-c4ccc5nc(C)oc5c4)c[nH]c3n2)c(OC)c1 | 35 |
| Nc1ccccc1NC(=O)c1ccc(CNC(=O)OCc2cccnc2)cc1 + CNC(=O)c1ccc(Nc2nc(OC3CCCC3)c3c(-c4ccc5nc(C)oc5c4)c[nH]c3n2)c(OC)c1 | 49.8 |

Same assay, conditions: second compound 3.16 µM; first compound 0.1 µM; active compounds read low

| Compound | viability, T/C [%] |
| --- | --- |
| COC1C=CCC(C)C(C)S(=O)(=O)NC(=O)c2ccc3c(c2)N(CC2CCC21)CC1(CCCc2cc(Cl)ccc21)CO3 (configuration not stated) + CNC(=O)c1ccc(Nc2nc(OC3CCCC3)c3c(-c4ccc5nc(C)oc5c4)c[nH]c3n2)c(OC)c1 | 39 |
| Nc1ccccc1NC(=O)c1ccc(CNC(=O)OCc2cccnc2)cc1 + CN1CCN(c2cc(C(=O)Nc3cc4cc(-c5cnn(C)c5)ccc4cn3)ccn2)CC1 | 0.81 |
